Where “and” joins values, the source holds several entries; their conditions need not be identical. Equal entries are not always repeated.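 Briefly, cells in 96-well plates were exposed to five compound concentrations for 48 h, and endpoints were estimated by linear interpolation. GI50 is the concentration that inhibits growth by half. TGI marks complete inhibition of growth.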
Experiments:
Assay in all cases: NCI tumour cell line growth inhibition, 48 h
DMS 273 small cell lung = system: DMS 273 small cell lung
LXFL 529 NSCLC = system: LXFL 529 NSCLC
XF 498 CNS = system: XF 498 CNS
KM20L2 colon = system: KM20L2 colon
RXF-631 renal = system: RXF-631 renal
HOP-18 NSCLC = system: HOP-18 NSCLC
P388/ADR leukemia = system: P388/ADR leukemia
P388 leukemia = system: P388 leukemia
SN12K1 renal = system: SN12K1 renal

SMILES | TGI (DMS 273 small cell lung) [µM] | TGI (LXFL 529 NSCLC) [µM] | TGI (XF 498 CNS) [µM] | TGI (KM20L2 colon) | TGI (RXF-631 renal) [µM] | TGI (HOP-18 NSCLC) [µM] | TGI (P388/ADR leukemia) [µM] | TGI (P388 leukemia) [µM] | TGI (SN12K1 renal) [mM] | GI50 (DMS 273 small cell lung) [nM] | GI50 (KM20L2 colon)
O=C(c1ccccc1)c1c(CNCc2ccccc2)n(C(=O)c2ccccc2)c2ccccc12 | > 100 | > 100 | > 100 | > 100 µM |  |  |  |  |  |  | 
O=c1[nH]c(=O)n(C2CC(O)C(CO)O2)cc1C#Cc1cc(F)cc(F)c1 (stereo not drawn) | > 100 | > 100 | > 100 |  | > 100 | 83.2 |  |  |  |  | 
COc1cc(C=O)c(-c2cc3c(cc2C=O)OCO3)c(OC)c1OC | > 290 | > 290 |  | 147 µM | > 290 | > 290 |  |  |  |  | 
CC1CCC23COC(=O)C2C(O)CCC3C1(C)CC(O)c1ccoc1 (stereo not drawn) |  | > 100 | > 100 | > 100 µM |  | > 100 |  |  |  |  | 
CCSc1nc2n(c(=S)n1)CCN2C | 33.6 | 29.5 |  | 52.9 µM |  |  |  |  |  |  | 
CC(=O)NC(CCCCNC(=O)N(C)N=O)C(=O)NCc1ccccc1 (stereo not drawn) | > 100 | > 100 | > 100 | > 100 µM | > 100 |  |  |  |  |  | 
O=C(Nc1c(Cl)cc([N+](=O)[O-])cc1Cl)/C(=N\Nc1cccc(Cl)c1)c1c(O)c2ccccc2oc1=O |  |  |  | > 100 µM | > 100 |  |  |  |  |  | 
CCN(CC)CCOc1ccc(C(=C2CCCCC2)c2ccc(OCCN(CC)CC)cc2)cc1 | 2.93 | 3.06 | 2.29 | 2.55 µM | 2.82 | 8.01 |  |  |  |  | 
C/C(=N/N)c1ccc2[nH]c3c(C)cc([N+](=O)[O-])c(C)c3c2c1 | 17.4 |  | 24.7 |  |  | 24 |  |  |  |  | 
S=C(Nc1ccccc1)N1N=C2c3ccccc3CC[C@H]2[C@@H]1c1ccccc1 |  | > 100 | > 100 | > 100 µM |  | > 100 |  |  |  |  | 
CSc1ccc2c(cc1=O)[C@@H](NC(=O)c1ccc(F)cc1)CCc1cc(O)c(O)c(O)c1-2 | > 100 | > 100 |  | > 100 µM | > 100 | > 100 |  |  |  |  | 
CC1=NN(C(=O)Cc2ccccc2)C(=O)/C1=C\c1ccco1 | > 100 |  | > 100 |  |  | > 100 |  |  |  |  | 
COc1ccc(C#CCC(OC2OC(CO)C(O)C(O)C2O)C(O)c2ccc(OC)c(OC)c2)cc1OC (stereo not drawn) | > 100 | > 100 |  | > 100 µM |  | > 100 |  |  |  |  | 
Cc1ccc(C2=C(c3ccccc3)C(O)(c3ccc(C)cc3)C(c3ccccc3)=C2c2ccc(C)cc2)cc1 | > 100 | > 100 | > 100 | > 100 µM |  |  |  |  |  |  | 
CN(C)CCC1(C2=CCCC2)CC/C(=C\c2ccccc2)C1=O (stereo not drawn) | 29 | 29.6 |  | 26 µM |  | 29.2 |  |  |  |  | 
COC(=O)C(Cc1nc2ccccc2[nH]c1=O)C(=O)C(=O)Nc1ccc(OC)cc1[N+](=O)[O-] (stereo not drawn) |  | > 100 | > 100 | > 100 µM |  |  |  |  |  |  | 
CC1OC(OC2CC(O)(C(=O)CO)Cc3c(O)c4c(c(O)c32)C(=O)c2ccccc2C4=O)CC(N)C1O (stereo not drawn) | < 0.0278 | 0.347 | 0.588 | 0.779 µM | 0.213 | 0.0358 |  |  |  |  | 
Nc1ccc(N)c2c1C(=O)c1c(N)ccc(N)c1C2=O | > 100 |  | > 89.2 | > 100 µM |  | 64.7 |  |  |  |  | 
CC[C@]12C=CCN3CCC4(c5cc([C@@]6(C(=O)OC)CC7CN(CCc8c6[nH]c6ccccc86)C[C@@H]6CCC[C@H]76)c(OC)cc5N(C)C4[C@](O)(C(=O)OC)C1OC(C)=O)C32 (stereo partly drawn) |  | > 10 |  | 0.209 µM |  |  |  |  |  |  | 
CCNCCCCNCC | > 3750 |  | > 3750 | > 3750 µM |  | > 37.5 | > 3750 | > 3750 | > 3.75 |  | 
O=C(CSc1nnc(-c2ccc(N=Cc3ccc(Cl)cc3)cc2)o1)Nc1cccc(Cl)c1 | > 100 | > 100 | > 100 | > 100 µM |  | > 100 |  |  |  |  | 
N#Cc1c2nc3ccccc3nc2n2ccc3ccccc3c12 | > 100 | > 100 |  |  |  | > 100 |  |  |  |  | 
COc1cc([C@@H]2c3cc4c(c(O)c3C[C@H]3COC(=O)[C@@H]32)OCO4)cc(OC)c1O |  | 0.00859 | 0.702 | 0.0279 µM and 0.059 µM |  |  | 0.992 | 1.9 |  | 1.98 | 10.5 nM and 33.2 nM
CN1OC2OC(=O)OC2[C@H]1[C@H]1O[C@H](c2ccccc2)OC1(C)c1cc(OC(=O)c2ccccc2)ccc1OC(=O)c1ccccc1 (stereo partly drawn) | > 50 | > 50 | > 50 | > 50 µM | > 50 |  |  |  |  |  | 
CC(C)(O)[C@H](CCO)O[Si](c1ccccc1)(c1ccccc1)C(C)(C)C | 24.2 | 23.8 | 20.7 | 23.9 µM |  | 11.1 |  |  |  |  | 

Source: PubChem BioAssay (NCI)
